Test results reported in patent US20230263786A1, “MODULATION OF DRUG-DRUG INTERACTIONS OF VADADUSTAT” (Akebia Therapeutics, Inc., priority 2020, published 2023).
Where “and” joins values, the source holds several entries; their conditions need not be identical. Equal entries are not always repeated.

Key:
[1] = [14C]-labeled Compound 1 650 mg metabolism and excretion; type: in vivo, human; settings: single oral 650 mg [14C]-labeled Compound 1, healthy adult males
Excerpt: Compound 1 is metabolized via UGT, mainly producing O-glucuronide conjugates.
The urinary excretion rate of this drug and acyl glucuronide is less than 1% of the total radioactivity.

[2] = Phase I ferrous sulfate tablet interaction study; settings: for Metabolite Ratio AUC(0-inf) / Metabolite Ratio AUC(0-t) / Metabolite Ratio Cmax: Metabolite/Parent; for AUC(0-inf) / AUC(0-t) / Cmax / Tmax: metabolite in plasma; for AUC(0-inf) / AUC(0-t) / Cmax: mean; for Tmax: median;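 as to all read-outs here: crossover in fasted human subjects with four-day washout between periods, plasma glucuronide metabolite pharmacokinetics, ratios computed as metabolite over parent for AUC and Cmax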
Protocol: Pharmacokinetics. […] The ratio of metabolite to parent was calculated for each glucuronide metabolite for AUC(0-t); and AUC(0-inf) and Cmax.
Comparative Bioavailability. […] Factors incorporated in the model included: Sequence, Subject (Sequence), Period, and Treatment.
Treatment of Subjects. […] All subjects are dosed on the same day for Day 1 of Confinement Period 1, and are crossed over to the alternate treatment and are dosed on the same day for Day 1 of Confinement Period 2. Both treatments are administered in a fasted state, and a four-day Washout Period separates each Confinement Period.

[3] = Phase I single-dose study, moderate hepatic impairment versus normal hepatic function; type: in vivo, human; settings: single 450 mg; for AUC0-inf, plasma, total / AUC0-last, plasma, total / Cmax, plasma, total / Elimination Half-life (t1/2): mean ± SD
Protocol: A phase I, open-label, parallel-group, single-dose study was conducted to evaluate the pharmacokinetics (PK) of 450 mg vadadustat administered in adults with moderate hepatic impairment (Child-Pugh Class B) versus those with normal hepatic function. The pharmacokinetic (pK) parameters of Compound 1 were characterized. Safety and tolerability were assessed throughout the study.
Inclusion criteria: participants were male and female adults between 18 and 70 years of age, with either normal hepatic function or moderate hepatic impairment based on the Child-Pugh classification (Child-Pugh Class B [score 7-9]). Moderate hepatic impairment was defined by the presence and severity of elevated bilirubin levels, decreased serum albumin levels, elevated international normalized ratios >2.20, ascites, and hepatic encephalopathy.
Pharmacokinetics. […] PK parameters Ae0-72, Fe %0-72, and CL, were estimated from the urine concentration-time profiles.
8 subjects with hepatic impairment and 8 matched subjects with normal hepatic function were enrolled in the study. All subjects received a single oral 450-mg dose of vadadustat on Day 1 and were required to fast for at least 10 hours before dosing and for 4 hours after dosing.

[4] = treatment Compound 1 450 mg alone

O=C(O)CNC(=O)c1ncc(-c2cccc(Cl)c2)cc1O[C@@H]1O[C@H](C(=O)O)[C@@H](O)[C@H](O)[C@H]1O [Compound 1-O-glucuronide]
share of the total radioactivity (AUC0-∞) in plasma [1]: about 15%
Metabolite Ratio AUC(0-inf) ([2]; treatment Compound 1 + Iron): 0.0943
Metabolite Ratio AUC(0-t) ([2]; treatment Compound 1 + Iron): 0.0935
Metabolite Ratio Cmax ([2]; treatment Compound 1 + Iron): 0.0748
Metabolite Ratio AUC(0-inf) ([2]; treatment Compound 1 alone): 0.104
Metabolite Ratio AUC(0-t) ([2]; treatment Compound 1 alone): 0.104
Metabolite Ratio Cmax ([2]; treatment Compound 1 alone): 0.0848
AUC(0-inf) [2, 4]: 44500 ng·h/mL
AUC(0-t) [2, 4]: 42800 ng·h/mL
Cmax [2, 4]: 6070 ng/mL
Tmax [2, 4]: 4.0 h
AUC(0-inf) ([2]; treatment Compound 1 + Iron): 19700 ng·h/mL
AUC(0-t) ([2]; treatment Compound 1 + Iron): 18600 ng·h/mL
Cmax ([2]; treatment Compound 1 + Iron): 2830 ng/mL
Tmax ([2]; treatment Compound 1 + Iron): 5.0 h
Ae0-72, cumulative amount excreted in urine up to 72 hours ([3]; Moderate Hepatic Impairment): 585 ± 125.1 mg
Fe%0-72, cumulative fraction excreted in urine ([3]; Moderate Hepatic Impairment): 82.8% and 82.8 ± 17.69%
AUC0-inf, plasma, total ([3]; Moderate Hepatic Impairment): 70900 ± 24300 ng·h/mL
AUC0-last, plasma, total ([3]; Moderate Hepatic Impairment): 68900 ± 24200 ng·h/mL
Cmax, plasma, total ([3]; Moderate Hepatic Impairment): 5850 ± 1500 ng/mL
Elimination Half-life (t1/2) ([3]; Moderate Hepatic Impairment): 6.01 ± 2.1 h
Ae0-72, cumulative amount excreted in urine up to 72 hours ([3]; Normal Liver Function): 473 ± 83.76 mg
Fe%0-72, cumulative fraction excreted in urine ([3]; Normal Liver Function): 66.9% and 66.9 ± 11.84%
AUC0-inf, plasma, total ([3]; Normal Liver Function): 63800 ± 21300 ng·h/mL
AUC0-last, plasma, total ([3]; Normal Liver Function): 62500 ± 21300 ng·h/mL
Cmax, plasma, total ([3]; Normal Liver Function): 6650 ± 2400 ng/mL
Elimination Half-life (t1/2) ([3]; Normal Liver Function): 4.74 ± 1.3 h
